The target of one test is T1, PI3Kalpha (Homo sapiens, UniProt P42336).
T1 construct: purchased Upstate; Millipore 14-602
In words: HTRF PI3K biochemical assay, alpha isoform (selectivity versus delta). The settings on record: relative ratio PI3K-alpha IC50 value / PI3K-delta IC50 value. The text has this:
(§1) HTRF PI3K Biochemical Assay to Measure Intrinsic Potency of Compound Inhibitors
(§2) The PI3-Kinase biochemical assays were developed to measure the intrinsic potency and compound dependent inhibition of the alpha, beta, delta, and gamma PI3K isoform enzymes. This assay was developed and further optimized from a kit produced by Upstate (Millipore catalog #33-047) and has been configured for HTS and SAR screening. Briefly, this procedure exploits the exquisite specificity and high affinity binding of […] phosphatidyl(3,4,5)triphosphate (PIP3) to the GRP1 pleckstrin homology (PH) domain to generate the signal. In the absence of PIP3, an HTRF (Homogeneous Time-Resolved Fluorescence energy transfer) complex is formed consisting of europium (Eu)-labeled anti-GST, GSTtagged GRP1-PH domain, biotin-PIP3 and streptavidin conjugated APC. The native PIP3 produced by PI3-Kinase activity disrupts in a competitive manner the biotin-PIP3 from the PH domain, resulting in the loss of energy transfer (HTRF complex) and a decrease in the signal. The format of this assay is the same for all 4 isoforms of PI3K; the differences lie in the concentration of enzyme used to achieve robust assay window. The alpha, beta, and delta assays are run at 0.5, 1, and 0.3 nM enzymes and the gamma assay is run at 5 nM enzyme. The ATP concentration is 100 uM in the alpha, beta, and delta assays and 50 uM ATP in the gamma assay. All reactions are run at 5 uM PIP2.
(§3) Compounds are serially diluted (3-fold in 100% DMSO) across a 384-well polypropylene source plated from column 3 to column 12 and column 13 to column 22, to yield 10 concentration dose response for each test compound. Columns 1, 2, 23 and 24 contain either only DMSO or pharmacological known control inhibitor. Once titrations are made, 2.5 nL of the compounds on 384 well plates are reformatted and transferred by acoustic dispense in quadruplicates to a 1536 assay plate (Greiner) to assay across all four PI3K isoform enzymes.
(§4) The PI3-Kinase biochemical assay was optimized using the HTRF kit provided by Upstate (Millipore). The assay kit contains six reagents: 1) 4× Reaction Buffer; 2) native PIP2 (substrate); 3) Stop (EDTA); 4) Detection Mix A (Streptavidin-APC); 5) Detection Mix B (Eu-labeled Anti-GST plus GST-tagged PH-domain); 6) Detection Mix C. In addition, the following items were obtained or purchased; PI3Kinase (alpha 14-602, beta 14-603, gamma 14-558 and delta 14-604 from Upstate; Millipore), dithiothreitol (Sigma, D-5545), Adenosine-5′ triphosphate (InVitrogen, Cat#AS001A), native PIP3 (PI(3,4,5)P3, diC8, H^+, CELLSIGNALS, INC. Cat #907) DMSO (Sigma, 472301).
(§5) PI3Kinase Reaction Buffer is prepared by dilution the stock 1:4 with de-ionized water. DTT, PIP2 and Biotin-PIP3 were added to 1536 assay plate at a final concentration of 5 mM, […] 25 nM on the day of use. Enzyme addition and compound pre-incubation are initiated by the addition of 1.25 ul of PI3K (at twice its final concentration) in the 1× reaction buffer to all wells using a BioRaptor. Plates are incubated at room temperature for 15 minutes. Reactions are initiated by addition of 1.25 ul of 2× substrate solution (PIP2 and ATP in 1× reaction buffer) using BioRaptor. Plates are incubated in humidified chamber at room temperature for one hour. Reactions are quenched by addition of 0.625 uL of stop solution to all wells using the BioRaptor. The quenched reactions are then processed to detect product formation by adding 0.625 uL of Detection Solution to all wells using the BioRaptor (Detection mix C, Detection Mix A, and Detection Mix B combined together in an 18:1:1 ratio prepared 2 hours prior to use). Following a one hour incubation in the dark, the HTRF signal is measured on the Envision plate reader set for 330 nm excitation and dual emission detection at […]. […]

A further test deals with T2, PI3Kdelta (Homo sapiens, UniProt O00329).
T2 construct: purchased Upstate; Millipore 14-604
Put plainly: HTRF PI3K biochemical assay, delta isoform. The settings on record: 0.3 nM enzyme, 100 uM ATP, 5 uM PIP2, form screened (Neutral or TFA salt) given per compound.
Text: as §1, §2, §3, §4, §5

T2 sequence (O00329 whole entry): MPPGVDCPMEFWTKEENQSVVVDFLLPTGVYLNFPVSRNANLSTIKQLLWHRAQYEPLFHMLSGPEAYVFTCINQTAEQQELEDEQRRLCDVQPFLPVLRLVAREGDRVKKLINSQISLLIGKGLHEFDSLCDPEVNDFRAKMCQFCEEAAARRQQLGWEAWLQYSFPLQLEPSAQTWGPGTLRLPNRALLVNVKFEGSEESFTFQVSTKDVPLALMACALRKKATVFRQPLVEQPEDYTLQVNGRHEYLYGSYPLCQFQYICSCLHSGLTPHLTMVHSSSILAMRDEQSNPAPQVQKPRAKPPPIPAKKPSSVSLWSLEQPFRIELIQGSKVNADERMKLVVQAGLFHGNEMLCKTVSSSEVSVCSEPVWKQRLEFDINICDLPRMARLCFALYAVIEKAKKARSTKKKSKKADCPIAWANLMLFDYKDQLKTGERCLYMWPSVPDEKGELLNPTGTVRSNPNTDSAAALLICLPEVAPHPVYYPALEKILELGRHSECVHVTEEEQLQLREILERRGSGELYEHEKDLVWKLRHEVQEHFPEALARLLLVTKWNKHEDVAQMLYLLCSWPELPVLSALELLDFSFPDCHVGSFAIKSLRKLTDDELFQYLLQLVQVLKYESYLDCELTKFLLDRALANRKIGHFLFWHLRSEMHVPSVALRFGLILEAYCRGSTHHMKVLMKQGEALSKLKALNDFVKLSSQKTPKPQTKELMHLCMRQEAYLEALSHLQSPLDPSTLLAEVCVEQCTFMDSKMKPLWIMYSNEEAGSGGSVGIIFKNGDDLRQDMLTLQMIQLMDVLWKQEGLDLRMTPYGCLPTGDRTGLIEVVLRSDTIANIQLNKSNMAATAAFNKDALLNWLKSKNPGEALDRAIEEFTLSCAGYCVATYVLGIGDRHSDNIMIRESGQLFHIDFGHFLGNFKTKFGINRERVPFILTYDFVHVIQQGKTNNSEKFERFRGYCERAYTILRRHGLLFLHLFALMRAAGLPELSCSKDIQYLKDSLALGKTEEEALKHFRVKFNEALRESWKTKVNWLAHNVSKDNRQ
T2 sequence (P27986 whole entry partner): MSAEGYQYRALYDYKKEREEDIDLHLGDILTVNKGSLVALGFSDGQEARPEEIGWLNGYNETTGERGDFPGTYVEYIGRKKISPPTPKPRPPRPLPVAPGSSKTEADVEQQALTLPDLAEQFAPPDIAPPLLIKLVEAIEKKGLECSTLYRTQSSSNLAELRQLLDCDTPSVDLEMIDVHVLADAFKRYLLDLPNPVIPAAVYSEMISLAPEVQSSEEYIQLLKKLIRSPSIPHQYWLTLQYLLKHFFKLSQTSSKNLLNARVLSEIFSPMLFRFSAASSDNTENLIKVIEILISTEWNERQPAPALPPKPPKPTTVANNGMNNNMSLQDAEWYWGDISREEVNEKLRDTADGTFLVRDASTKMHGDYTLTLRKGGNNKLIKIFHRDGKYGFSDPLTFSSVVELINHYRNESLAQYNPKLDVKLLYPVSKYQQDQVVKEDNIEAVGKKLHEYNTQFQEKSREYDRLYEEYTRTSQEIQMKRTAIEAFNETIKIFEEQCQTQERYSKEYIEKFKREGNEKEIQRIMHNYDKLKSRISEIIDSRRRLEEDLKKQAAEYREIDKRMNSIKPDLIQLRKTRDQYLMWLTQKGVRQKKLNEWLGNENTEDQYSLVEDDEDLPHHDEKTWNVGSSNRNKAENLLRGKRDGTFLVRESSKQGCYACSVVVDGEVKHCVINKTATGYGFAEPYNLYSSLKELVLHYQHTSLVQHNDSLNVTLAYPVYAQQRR
T1 sequence (P42336 whole entry): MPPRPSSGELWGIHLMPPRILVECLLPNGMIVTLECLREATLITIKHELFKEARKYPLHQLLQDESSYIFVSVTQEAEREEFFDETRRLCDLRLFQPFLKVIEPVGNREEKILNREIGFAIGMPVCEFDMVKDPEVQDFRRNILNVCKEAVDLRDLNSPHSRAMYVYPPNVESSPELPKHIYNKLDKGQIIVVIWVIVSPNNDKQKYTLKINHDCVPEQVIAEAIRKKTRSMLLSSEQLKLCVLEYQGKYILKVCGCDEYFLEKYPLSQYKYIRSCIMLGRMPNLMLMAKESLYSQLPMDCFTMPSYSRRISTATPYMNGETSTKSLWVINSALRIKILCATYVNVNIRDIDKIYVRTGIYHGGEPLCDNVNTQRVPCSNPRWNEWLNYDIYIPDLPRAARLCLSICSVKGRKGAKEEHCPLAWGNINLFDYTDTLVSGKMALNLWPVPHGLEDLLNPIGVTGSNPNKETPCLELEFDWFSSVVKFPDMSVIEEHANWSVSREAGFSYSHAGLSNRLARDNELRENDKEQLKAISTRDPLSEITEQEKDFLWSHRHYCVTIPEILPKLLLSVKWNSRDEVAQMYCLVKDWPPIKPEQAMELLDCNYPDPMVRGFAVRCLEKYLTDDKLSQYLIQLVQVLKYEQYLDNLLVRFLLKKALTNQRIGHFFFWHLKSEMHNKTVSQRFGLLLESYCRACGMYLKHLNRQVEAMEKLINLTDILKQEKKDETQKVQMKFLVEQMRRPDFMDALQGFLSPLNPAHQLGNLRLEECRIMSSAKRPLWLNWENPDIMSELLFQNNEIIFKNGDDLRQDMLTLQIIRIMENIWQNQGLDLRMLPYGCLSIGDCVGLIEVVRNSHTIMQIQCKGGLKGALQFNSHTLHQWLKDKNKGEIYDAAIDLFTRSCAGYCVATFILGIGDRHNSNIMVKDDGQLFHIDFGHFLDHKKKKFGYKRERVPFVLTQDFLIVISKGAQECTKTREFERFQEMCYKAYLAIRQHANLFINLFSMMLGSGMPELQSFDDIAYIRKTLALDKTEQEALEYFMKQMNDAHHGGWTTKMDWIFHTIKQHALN
T1 sequence (P27986 whole entry partner): as the sequence (P27986 whole entry partner) above

Regarding `CCn1c(C(F)F)nc2c(NC3CCc4nnc(C(C)C)n4C3)ncnc21` (single isomer, unassigned) [Compound 1-8, (S or R)-8-(difluoromethyl)-9-ethyl-N-[3-(1-methylethyl)-5,6,7,8-tetrahydro[1,2,4]triazolo[4,3-a]pyridin-6-yl]-9H-purin-6-amine], on PI3Kalpha, the “Selectivity versus PI3Kalpha” value was more than 10. Moreover, on PI3Kdelta, the IC50 amounted to 460 nM.
In the same order, the values of `CCn1c(C(F)F)nc2c(NC3CCc4nnc(C(C)C)n4C3)ncnc21` (single isomer, unassigned) [Compound 1-9, (S or R)-8-(difluoromethyl)-9-ethyl-N-[3-(1-methylethyl)-5,6,7,8-tetrahydro[1,2,4]triazolo[4,3-a]pyridin-6-yl]-9H-purin-6-amine] are more than 10 and 16 nM.
For `CCn1c(-c2ccc(C(F)(F)F)nc2)nc2c(NC3CCc4nnc(C(C)C)n4C3)ncnc21` (single isomer, unassigned) [Compound 1-18, (S or R)-9-ethyl-N-[3-(1-methylethyl)-5,6,7,8-tetrahydro[1,2,4]triazolo[4,3-a]pyridin-6-yl]-8-[6-(trifluoromethyl)pyridin-3-yl]-9H-purin-6-amine], in that order: more than 10 and less than 1 nM.
For `CCn1c(-c2ccc(C(F)(F)F)nc2)nc2c(NC3CCc4nnc(C(C)C)n4C3)ncnc21` (single isomer, unassigned) [Compound 1-19, (S or R)-9-ethyl-N-[3-(1-methylethyl)-5,6,7,8-tetrahydro[1,2,4]triazolo[4,3-a]pyridin-6-yl]-8-(6-(trifluoromethyl)pyridin-3-yl]-9H-purin-6-amine], the “Selectivity versus PI3Kalpha” value on PI3Kalpha is more than 10. The IC50 at PI3Kdelta turned out to be 31 nM.
In the same order, the values of `CCn1c(-c2ccc(C(F)(F)F)cc2)nc2c(NC3CCc4nnc(C(C)C)n4C3)ncnc21` (single isomer, unassigned) [Compound 1-20, (S or R)-9-ethyl-N-[(6S)-3-(1-methylethyl)-5,6,7,8-tetrahydro[1,2,4]triazolo[4,3-a]pyridin-6-yl]-8-[4-(trifluoromethyl)phenyl]-9H-purin-6-amine] are more than 10 and less than 1 nM.
Regarding `CCn1c(-c2cnc(OC)c(F)c2)nc2c(NC3CCc4nnc(C(C)C)n4C3)ncnc21` (single isomer, unassigned) [Compound 1-21, (S or R)-9-ethyl-8-(5-fluoro-6-methoxypyridin-3-yl)-N-[3-(1-methylethyl)-5,6,7,8-tetrahydro[1,2,4]triazolo[4,3-a]pyridin-6-yl]-9H-purin-6-amine], at PI3Kalpha, the “Selectivity versus PI3Kalpha” value was more than 10. On PI3Kdelta, the IC50 is less than 1 nM.
Turning to `CCn1c(-c2cnc(OC)c(Cl)c2)nc2c(NC3CCc4nnc(C(C)C)n4C3)ncnc21` (single isomer, unassigned) [Compound 1-22, (S or R)-8-(5-chloro-6-methoxypyridin-3-yl)-9-ethyl-N-[3-(1-methylethyl)-5,6,7,8-tetrahydro[1,2,4]triazolo[4,3-a]pyridin-6-yl]-9H-purin-6-amine], the “Selectivity versus PI3Kalpha” value at PI3Kalpha is on record as more than 10. The IC50 at PI3Kdelta amounted to 221 nM.
In the same order, the values of `CCn1c(-c2cnn(-c3ccccc3)c2)nc2c(NC3CCc4nnc(C(C)C)n4C3)ncnc21` (single isomer, unassigned) [Compound 1-23, (S or R)-9-ethyl-N-[3-(1-mtthylethyl)-5,6,7,8-tetrahydro[1,2,4]triazolo[4,3-a]pyridin-6-yl]-8-(1-phenyl-1H-pyrazol-4-yl)-9H-purin-6-amine] are more than 10 and less than 1 nM.
In the same order, the values of `CCn1c(-c2ccc(C(F)F)cc2)nc2c(NC3CCc4nnc(C(C)C)n4C3)ncnc21` (single isomer, unassigned) [Compound 1-24, 8-[4-(difluoromethyl)phenyl]-9-ethyl-N-[(6(S or R))-3-(1-methylethyl)-5,6,7,8-tetrahydro[1,2,4]triazolo[4,3-a]pyridin-6-yl]-9H-purin-6-amine] are more than 10 and 3.5 nM.
In the same order, the values of `CCn1c(-n2cnc(C(F)(F)F)c2)nc2c(NC3CCc4nnc(C(C)C)n4C3)ncnc21` (single isomer, unassigned) [Compound 1-25, 9-ethyl-N-[(6(S or R))-3-(1-methylethyl)-5,6,7,8-tetrahydro[1,2,4]triazolo[4,3-a]pyridin-6-yl]-8-[4-(trifluoromethyl)-1H-imidazol-1-yl]-9H-purin-6-amine] are more than 10 and 24 nM.
On to `CCn1c(I)nc2c(NC3CCc4nnc(C5CC5)n4C3)ncnc21` (single isomer, unassigned) [Compound 1-26, (S or R)-N-[3-cyclopropyl-5,6,7,8-tetrahydro[1,2,4]triazolo[4,3-a]pyridin-6-yl]-9-ethyl-8-iodo-9H-purin-6-amine], for which the “Selectivity versus PI3Kalpha” value on PI3Kalpha is reported as more than 10. Moreover, the IC50 on PI3Kdelta came out at 12 nM.
For `CCn1c(I)nc2c(NC3CCc4nnc(C5CC5)n4C3)ncnc21` (single isomer, unassigned) [Compound 1-27, (S or R)-N-[3-cyclopropyl-5,6,7,8-tetrahydro[1,2,4]triazolo[4,3-a]pyridin-6-yl]-9-ethyl-8-iodo-9H-purin-6-amine], in that order: more than 10 and 151 nM.
With `CCn1c(-c2ccc(C(F)(F)F)cc2)nc2c(NC3CCc4nnc(C5CC5)n4C3)ncnc21` (single isomer, unassigned) [Compound 1-28, (S or R)-N-(3-cyclopropyl-5,6,7,8-tetrahydro[1,2,4]triazolo[4,3-a]pyridin-6-yl)-9-ethyl-8-[4-(trifluoromethyl)phenyl]-9H-purin-6-amine], the “Selectivity versus PI3Kalpha” value at PI3Kalpha was more than 10. The IC50 at PI3Kdelta worked out at 1.4 nM.
For `CCn1c(-c2ccc(C(F)(F)F)cc2)nc2c(NC3CCc4nnc(C5CC5)n4C3)ncnc21` (single isomer, unassigned) [Compound 1-29, (S or R)-N-(3-cyclopropyl-5,6,7,8-tetrahydro[1,2,4]triazolo[4,3-a]pyridin-6-yl)-9-ethyl-8-[4-(trifluoromethyl)phenyl]-9H-purin-6-amine], in that order: more than 10 and 49 nM.
For `CCn1c(-c2ccc(S(C)(=O)=O)nc2)nc2c(NC3CCc4nnc(C5CC5)n4C3)ncnc21` (single isomer, unassigned) [Compound 1-30, (S or R)-N-[(6S)-3-cyclopropyl-5,6,7,8-tetrahydro[1,2,4]triazolo[4,3-a]pyridin-6-yl]-9-ethyl-8-[6-(methylsulfonyl)pyridin-3-yl]-9H-purin-6-amine], in that order: more than 10 and 8.3 nM.
For `CCn1c(-c2cnc(C)nc2)nc2c(OC3CCc4nnc(C5CC5)n4C3)ncnc21` (single isomer, unassigned) [Compound 1-31, (S or R)-6-{[3-cyclopropyl-5,6,7,8-tetrahydro[1,2,4]triazolo[4,3-a]pyridin-6-yl]oxy}-9-ethyl-8-(2-methylpyrimidin-5-yl)-9H-purine], in that order: more than 10 and 220 nM.

Values taken from patent US10100064B2, “Purine inhibitors of human phosphatidylinositol 3-kinase delta” (Merck Sharp & Dohme Corp., priority 2014, dated 2018).
